Measurements taken from patent US20240197772A1, “COMPOSITIONS COMPRISING ONE OR MORE HMO'S WITH A CORE OF LacNAc-Lac” (FrieslandCampina Nederland B.V., priority 2020, published 2024).

Tests used:
IL19 = assay: PCR gene expression of IL19 in PBMCs incubated with single HMOs; type: cell-based, human; conditions: PBMCs of 3 donors, 0.5 mg/ml HMO, 5 h, average, control set as 1, GAPDH reference gene
Experimental: (§1) The effect of single HMOs on the expression of genes relevant to cholesterol metabolism and atherogenesis was tested using Peripheral Blood Mononuclear Cells (PBMCs) from 3 donors and incubated those cells with 0.5 g/l of single HMOs. The level of expression was determined using PCR.
(§2) Peripheral blood mononuclear cells (PBMC's) were isolated from a buffy coat using Sepmate tubes. The cells were diluted to a concentration of 1*10^7 cells per ml. The PBMC's were seeded in 6 wells plates and treated with 0.5 g/l of each HMO in PBMC culturing medium for 5 h prior to RNA isolation. Each HMO was mixed with 100 ug/ml final concentration of Polymyxin B to ensure neutralization of possible endotoxin contamination of HMOs, while equal amounts of Polymyxin B were used as a control.
(§3) 500 ng RNA, isolated from PBMCs, was translated into cDNA, using the quantitect reverse transcription kit (Qiagen). Primersets for the regulated genes (shown in the table below), were ordered at Qiagen (Quantitect primer assays). From each condition (PBMCs of 3 donors in control situation and after exposure towards HMOs (5 hrs)) cDNA (100×, 10× for genes which were low expressed) was amplified using the different primersets.
(§4) GAPDH (Glyceraldehyde-3-Phosphate Dehydrogenase) was used as a reference gene to quantify changes of gene expression between the control and the HMO-treated cells.
(§5) • GAPDH: Hs_GAPDH_vb.1_SG QuantiTect Primer Assay • IL19: Hs_IL19_1_SG QuantiTect Primer Assay • CD36: Hs_CD36_3_SG QuantiTect Primer Assay • GPR43/FFAR2: Hs_FFAR2_2_SG QuantiTect Primer Assay • ABCA1: Hs_ABCA1_1_SG QuantiTect Primer Assay
(§6) 19 commercially available HMO's that are present in human milk were tested. All gene expression values were calibrated to the Polymyxin B control of each respective donor (set arbitrary as 1). Average values for each gene compared to the Polymyxin B control are shown below (values above 1.5 fold or below 0.5 fold were considered physiologically relevant).

CD36 = assay: PCR gene expression of CD36 in PBMCs incubated with single HMOs; type: cell-based, human; conditions: PBMCs of 3 donors, 0.5 mg/ml HMO, 5 h, average, control set as 1, GAPDH reference gene
Experimental: as §1, §2, §3, §4, §5, §6

GPR43/FFAR2 = assay: PCR gene expression of GPR43/FFAR2 in PBMCs incubated with single HMOs; type: cell-based, human; conditions: PBMCs of 3 donors, 0.5 mg/ml HMO, 5 h, average, control set as 1, GAPDH reference gene
Experimental: as §1, §2, §3, §4, §5, §6

CD14+ CD36+ PBMC's = assay: Cholesterol uptake (Dil oxLDL) by FACS in PBMCs; type: cell-based; conditions: 0.5 mg/ml, 4 hrs pre-incubation then 10 ug/ml Dil oxLDL 1 hour; gated on CD14+ CD36+ cells; FIG. 1
ABCA1 = assay: PCR gene expression of ABCA1 in PBMCs incubated with single HMOs; type: cell-based, human; conditions: PBMCs of 3 donors, 0.5 mg/ml HMO, 5 h, average, control set as 1, GAPDH reference gene
Experimental: as §1, §2, §3, §4, §5, §6
2′FL was included too as it was expected that the most abundant HMO in human milk would show changes in any of these systems. […]

Primary human adipocytes = assay: Adipocyte glucose uptake assay (3H-2-deoxyglucose); type: cell-based; conditions: 2 hours incubation; compared with vehicle control DMSO and insulin 100 nM positive control; LPS 2 ng/mL
Source text: • 1. Subcutaneous preadipocytes from Zen-Bio Inc were thawed and plated into appropriate experimental plate format. • 2. Upon thawing cells, culturing followed differentiation schedule below: • Day Treatment • 1 Plate cells in PM-1 • 2 Differentiate cells using DM-2 • 9 Feed cells Maintenance medium AM-1 • 16 Assay cells for lipid accumulation, lipolysis, glucose uptake or RNAseq. • 1. Primary human adipocytes were differentiated in 96-well isoplates • 2. At 14 days post differentiation, the cells were treated with glucose uptake starvation media (Zen-Bio Inc) overnight. • 3. The next morning, the cells were washed with assay buffer and the cells were treated with compounds in glucose assay buffer containing ^3H-2-deoxyglucose cocktail and the cells were incubated at 37° C., 5% CO2 and allowed to incubate for 2 hours. • 4. After 2 hours, the cells were washed with PBS, lysed, and mixed with Optiphase “Supermix” scintillation fluid (Zen-Bio Inc). The Counts Per Minute (CPM) of each well measured. • Vehicle control: DMSO (control) • Zen Bio Insulin positive control: 100 nM (insulin) • Control for possible endotoxin contamination of pHMOs: […]

Compound | IL19 gene expression relative to Polymyxin B control (IL19) | CD36 gene expression relative to Polymyxin B control (CD36) | FFAR2 gene expression relative to Polymyxin B control (GPR43/FFAR2) | cholesterol level in the cell, % of original value (MFI vs no glycan control with Dil oxLDL) (CD14+ CD36+ PBMC's) | ABCA1 gene expression relative to Polymyxin B control (ABCA1) | glucose uptake (CPM of 3H-2-deoxyglucose) (Primary human adipocytes) | CD36 gene expression relative to Polymyxin B control (CD36; listed as LNF-III)
3-Fucosyllactose [3FL] | 1.06 fold | 0.98 fold | 1.18 fold |  |  |  | 
CC(=O)N[C@H]1[C@H](O[C@H]2[C@@H](O)[C@@H](CO)O[C@@H](O[C@H]3[C@H](O)[C@@H](O)C(O)O[C@@H]3CO)[C@@H]2O)O[C@H](CO)[C@@H](O[C@@H]2O[C@H](CO)[C@H](O)[C@H](O)[C@H]2O)[C@@H]1O (mixture of isomers) [LNnT, lacto-N-neotetraose] | 0.93 fold | 0.93 fold | 0.93 fold |  |  |  | 
C[C@@H]1O[C@@H](O[C@H]2[C@H](O[C@H]3[C@H](O)[C@@H](O)C(O)O[C@@H]3CO)O[C@H](CO)[C@H](O)[C@@H]2O)[C@@H](O)[C@H](O)[C@@H]1O (stereo partly drawn) [2′FL, 2′-fucosyllactose] |  | 0.67 fold | 0.72 fold | about 91% | 1.09 fold | not significantly different from the vehicle control | 
CC(=O)N[C@H]1[C@H]([C@H](O)[C@H](O)CO)O[C@@](O[C@H]2[C@@H](O)[C@@H](CO)O[C@@H](O[C@H]3[C@H](O[C@@H]4O[C@@H](C)[C@@H](O)[C@@H](O)[C@@H]4O)[C@@H](O)C(O)O[C@@H]3CO)[C@@H]2O)(C(=O)O)C[C@@H]1O (stereo partly drawn) [3S3FL] | 0.94 fold | 0.90 fold | 1.03 fold |  |  |  | 
CC(=O)N[C@H]1[C@H]([C@H](O)[C@H](O)CO)O[C@@](O[C@H]2[C@@H](O)[C@@H](CO)O[C@@H](O[C@H]3[C@H](O)[C@@H](O)C(O)O[C@@H]3CO)[C@@H]2O)(C(=O)O)C[C@@H]1O (stereo partly drawn) [3′SL, 3′-Sialyllactose] | 1.24 fold | 0.87 fold | 1.25 fold |  |  |  | 
CC(=O)N[C@H]1[C@H]([C@H](O)[C@H](O)CO)O[C@@](OC[C@H]2O[C@@H](O[C@H]3[C@H](O)[C@@H](O)[C@H](O)O[C@@H]3CO)[C@H](O)[C@@H](O)[C@H]2O)(C(=O)O)C[C@@H]1O [6′SL, 6′-Sialyllactose] | 1.05 fold | 0.93 fold | 1.83 fold |  |  |  | 
CC(=O)N[C@H]1[C@H](O[C@H]2[C@@H](O)[C@@H](CO)O[C@@H](O[C@@H]([C@H](O)[C@@H](O)C=O)[C@H](O)CO)[C@@H]2O)O[C@H](CO[C@]2(C(=O)O)C[C@H](O)[C@@H](NC(C)=O)[C@H]([C@H](O)[C@H](O)CO)O2)[C@@H](O)[C@@H]1O[C@@H]1O[C@H](CO)[C@H](O)[C@H](O[C@]2(C(=O)O)C[C@H](O)[C@@H](NC(C)=O)[C@H]([C@H](O)[C@H](O)CO)O2)[C@H]1O [DSLNT, disialyllacto-N-tetraose] |  |  |  |  | 2.02 fold |  | 
C[C@@H]1O[C@@H](O[C@H]2[C@H](O[C@H]3[C@H](O[C@@H]4O[C@@H](C)[C@@H](O)[C@@H](O)[C@@H]4O)[C@@H](O)C(O)O[C@@H]3CO)O[C@H](CO)[C@H](O)[C@@H]2O)[C@@H](O)[C@H](O)[C@@H]1O (stereo partly drawn) [LDFT] | 0.75 fold | 1.00 fold | 1.64 fold |  |  |  | 
CC(=O)N[C@H]1[C@H](O[C@H]2[C@@H](O)[C@@H](CO)O[C@@H](O[C@H]3[C@H](O)[C@@H](O)C(O)O[C@@H]3CO)[C@@H]2O)O[C@H](CO)[C@@H](O)[C@@H]1O[C@@H]1O[C@H](CO)[C@H](O)[C@H](O)[C@H]1O (stereo partly drawn) [LNT, lacto-N-tetraose] | 0.93 fold | 0.93 fold | 0.93 fold |  |  |  | 
CC(=O)N[C@H]1[C@H](O[C@H]2[C@@H](O)[C@@H](CO)O[C@@H](O[C@@H]([C@H](O)[C@@H](O)C=O)[C@H](O)CO)[C@@H]2O)O[C@H](CO[C@]2(C(=O)O)C[C@H](O)[C@@H](NC(C)=O)[C@H]([C@H](O)[C@H](O)CO)O2)[C@@H](O)[C@@H]1O[C@@H]1O[C@H](CO)[C@H](O)[C@H](O)[C@H]1O [LSTb, sialyllacto-N-tetraose b] | 1.31 fold | 0.75 fold |  |  |  |  | 
CC(=O)N[C@H]1[C@H](O[C@H]2[C@@H](O)[C@@H](CO)O[C@@H](O[C@H]3[C@H](O)[C@@H](O)C(O)O[C@@H]3CO)[C@@H]2O)O[C@H](CO)[C@@H](O[C@@H]2O[C@H](CO[C@]3(C(=O)O)C[C@H](O)[C@@H](NC(C)=O)[C@H]([C@H](O)[C@H](O)CO)O3)[C@H](O)[C@H](O)[C@H]2O)[C@@H]1O (stereo partly drawn) [LSTc] | 1.25 fold | 0.90 fold | 1.02 fold |  |  |  | 
LNFP-I | 1.89 fold | 0.85 fold | 0.86 fold |  |  |  | 
Lacto-N-fucopentaose III [LNFP-III] |  | 0.08 fold |  |  |  |  | reduce
Lipopolysaccharide [LPS] |  |  |  |  |  | did not upregulate glucose uptake at all | 
lactodifucoheaxose II [LNDFH-II] |  |  |  |  | 2.16 fold |  | 
